“And” between values parts separate entries of the source, which are not always exact repeats. Equal values may be shown once.
Columns and labels:
[1] = system: HEK-293 EV cells; experiment: Calcium 5 dye [Ca]i assay in HEK-293 empty vector (EV) cells; assay type: cell-based, human; conditions: 300 µM
Description: (§1) The cells were incubated in a 5% CO2 humidified atmosphere at 37 °C. Upon reaching approximately 90% confluence in 75 cm^2 flasks, they were trypsinized and transferred to poly-D-lysine coated 96-well plates (Corning, Castle Hill, NSW, Australia) in L-15 medium supplemented with 1% FBS, 100 U penicillin and 100 µg streptomycin ml^−1 (1% P/S), and 15 mM glucose (80 µL volume per well). After an overnight incubation (maximum of 16 h) in humidified room air at 37 °C, TRPV1 and TRPA1 receptor expression was induced 4 h before experimentation by adding to each well 10 µL tetracycline solution to a final concentration of 1 µg ml^−1.
Intracellular calcium [Ca]i levels were assessed using the calcium 5 kit from Molecular Devices (# R8186, Sunnyvale, CA, USA) on a FlexStation 3 Microplate Reader (Molecular Devices, Sunnyvale, CA, USA). […] 90 µL of the dye were loaded into each well of the plate and incubated for 1 h before reading in the FlexStation 3 at 37 °C. […] After 1 min of baseline recording, 20 µL of the drug, dissolved in HBSS with 1% dimethyl sulfoxide (DMSO) (cat # D2650; Sigma-Aldrich, Melbourne, Australia) was added (final DMSO concentration was 0.1% in well).
(§2) The response to agonists was expressed as a percentage change from the average baseline measurement taken for 60s before adding drug. Changes in fluorescence resulting from the addition of solvent were subtracted before normalization to baseline. Concentration–response curves (CRC), Emax and EC50 values were determined using a three-parameter logistic equation (GraphPad Prism, San Diego, CA, USA). […] Potencies were expressed as pEC50, which is the negative log of EC50 in moles per litre (Molar). Where appropriate, unpaired Student’s t-test were used to compare the responses of individual compounds in different conditions, while a one-way ANOVA followed by Dunnett’s multiple comparisons test was used to assess potential differences in responses elicited by a range of compounds. P < 0.05 was considered statistically significant.

[2] = target: T1, human TRPA1 (Homo sapiens, UniProt O75762); experiment: Calcium 5 dye [Ca]i assay in HEK-293 Flp-In T-REx cells expressing TRPA1 (agonist response); assay type: cell-based; conditions: for [Ca]i response (change in fluorescence), individual replicates: listed as CA
T1 construct: Life Technologies (cells); host or cells: Flp-In T-REx HEK-293
Description: as §1
(§3) Intracellular calcium [Ca]i levels were assessed using the calcium 5 kit from Molecular Devices (# R8186, Sunnyvale, CA, USA) on a FlexStation 3 Microplate Reader (Molecular Devices, Sunnyvale, CA, USA). […] Probenecid (cat # 50027; Biotium) which helps to prevent expulsion of calcium indicator from the cells was added to a final concentration of 1.25 mM. 90 µL of the dye were loaded into each well of the plate and incubated for 1 h before reading in the FlexStation 3 at 37 °C. Fluorescence was recorded every 2 s (λ excitation = 485 nm, λ emission = 525 nm) for 5 min. After 1 min of baseline recording, 20 µL of the drug, dissolved in HBSS with 1% dimethyl sulfoxide (DMSO) (cat # D2650; Sigma-Aldrich, Melbourne, Australia) was added (final DMSO concentration was 0.1% in well).
as §2

[3] = target: T2, human TRPV1 (Homo sapiens, UniProt Q8NER1); experiment: Calcium 5 dye [Ca]i assay in HEK-293 Flp-In T-REx cells expressing TRPV1 (agonist response); assay type: cell-based; conditions: 5 µM; HEK-293 TRPV1 cells; dye saturation control
T2 construct: Life Technologies (cells); host or cells: Flp-In T-REx HEK-293
Description: as §1, §3, §2

[4] = target: T2, human TRPV1; experiment: PMA (phorbol ester) potentiation of TRPV1 responses in HEK-293 TRPV1 cells; assay type: cell-based; conditions: for Effect of PMA on [Ca]i and on subsequent capsaicin (10 nM) response / PMA response, individual experiments: 5 min; for PMA response, individual experiments: TRPV1 cells
Description: as §3
We initially determined the effect of PMA, another phorbol ester that is a protein kinase C activator ([Jiang & Fleet, 2012]) on HEK-293 TRPV1 expressing cells.
(A) Response of HEK-293 TRPV1 expressing cells for PMA at various concentration. […] Drugs were added for the duration of the bar; (D) The effects of PUFAs after potentiation of TRPV1 by PMA. […] Changes in [Ca]i are expressed as percentage of the pre-drug baseline, with the response to PMA alone at 5 min subtracted. The black circles represent the response of PUFAs without PMA pretreatment while the pink circles represent the response of PUFAs after PMA potentiation.

T2 sequence (Q8NER1 whole entry): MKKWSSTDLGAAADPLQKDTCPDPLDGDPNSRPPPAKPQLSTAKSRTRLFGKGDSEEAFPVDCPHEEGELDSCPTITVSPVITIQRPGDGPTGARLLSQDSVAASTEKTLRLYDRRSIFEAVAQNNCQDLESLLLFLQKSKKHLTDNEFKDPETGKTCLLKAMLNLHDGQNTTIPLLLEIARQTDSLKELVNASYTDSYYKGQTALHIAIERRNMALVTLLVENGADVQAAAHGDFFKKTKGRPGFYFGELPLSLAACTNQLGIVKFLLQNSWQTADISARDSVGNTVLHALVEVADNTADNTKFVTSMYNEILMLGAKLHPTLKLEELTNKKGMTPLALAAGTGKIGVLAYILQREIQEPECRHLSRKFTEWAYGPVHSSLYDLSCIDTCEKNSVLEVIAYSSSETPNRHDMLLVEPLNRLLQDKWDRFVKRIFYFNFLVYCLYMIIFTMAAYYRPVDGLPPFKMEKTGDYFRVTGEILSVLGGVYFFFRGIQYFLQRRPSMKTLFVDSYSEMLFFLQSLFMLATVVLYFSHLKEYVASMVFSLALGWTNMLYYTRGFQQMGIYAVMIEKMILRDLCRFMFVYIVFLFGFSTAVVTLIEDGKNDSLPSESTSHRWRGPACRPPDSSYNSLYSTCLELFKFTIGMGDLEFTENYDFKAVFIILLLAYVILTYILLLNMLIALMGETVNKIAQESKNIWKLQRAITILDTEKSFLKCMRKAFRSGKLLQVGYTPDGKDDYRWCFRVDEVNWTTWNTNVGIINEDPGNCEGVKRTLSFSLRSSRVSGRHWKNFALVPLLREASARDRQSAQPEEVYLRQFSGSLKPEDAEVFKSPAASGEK
T1 sequence (O75762 whole entry): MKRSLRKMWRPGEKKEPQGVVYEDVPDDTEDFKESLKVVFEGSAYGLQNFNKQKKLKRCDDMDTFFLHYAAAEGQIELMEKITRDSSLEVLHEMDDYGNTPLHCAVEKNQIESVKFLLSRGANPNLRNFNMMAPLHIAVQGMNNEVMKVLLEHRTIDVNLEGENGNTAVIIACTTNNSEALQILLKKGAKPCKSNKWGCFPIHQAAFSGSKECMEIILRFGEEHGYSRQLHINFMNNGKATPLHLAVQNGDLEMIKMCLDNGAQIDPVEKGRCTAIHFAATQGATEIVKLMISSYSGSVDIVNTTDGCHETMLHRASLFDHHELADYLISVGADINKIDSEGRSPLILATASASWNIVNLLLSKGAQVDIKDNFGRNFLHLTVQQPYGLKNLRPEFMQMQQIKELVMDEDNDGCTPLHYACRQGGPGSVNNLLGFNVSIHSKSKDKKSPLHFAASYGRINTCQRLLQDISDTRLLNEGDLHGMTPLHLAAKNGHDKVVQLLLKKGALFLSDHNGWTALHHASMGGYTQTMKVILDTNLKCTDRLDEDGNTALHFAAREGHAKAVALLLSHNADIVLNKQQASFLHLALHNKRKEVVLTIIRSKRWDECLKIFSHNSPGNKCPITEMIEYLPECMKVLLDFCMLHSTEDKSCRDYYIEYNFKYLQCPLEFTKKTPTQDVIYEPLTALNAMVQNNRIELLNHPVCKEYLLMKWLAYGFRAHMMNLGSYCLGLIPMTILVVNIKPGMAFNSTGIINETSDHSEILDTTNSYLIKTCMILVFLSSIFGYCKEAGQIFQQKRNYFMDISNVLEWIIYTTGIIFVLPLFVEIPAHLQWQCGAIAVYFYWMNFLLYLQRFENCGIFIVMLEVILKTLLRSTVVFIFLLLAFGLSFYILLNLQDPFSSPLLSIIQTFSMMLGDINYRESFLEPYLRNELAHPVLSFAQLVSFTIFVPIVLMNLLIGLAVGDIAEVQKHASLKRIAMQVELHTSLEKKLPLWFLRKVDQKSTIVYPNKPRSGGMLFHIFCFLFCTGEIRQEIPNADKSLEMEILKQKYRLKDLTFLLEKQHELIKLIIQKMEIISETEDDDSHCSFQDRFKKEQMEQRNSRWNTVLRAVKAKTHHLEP

O=C/C=C/c1ccccc1 [Cinnamaldehyde, reference compound]
Change of Ca5 fluorescence, Mean ± SEM, EV [1]: 9 ± 6%
Elevation of [Ca]i in HEK-293 TRPA1 cells compared with HEK-293 EV cells ([2]; 10 µM (cinnamaldehyde 300 µM)): significantly greater
Emax at 30 µM ([2]; HEK293, read-out: Emax ± SEM % TRPA1 (30 µM)): 503 ± 23%
EC50 ([2]; HEK-293 TRPA1 cells, EC50 in molar, read-out: pEC50 ± SEM TRPA1 (converted)): 39.8 µM
[Ca]i response (change in fluorescence), individual replicates ([2]; concentration -3 (log), sheet Figure 3(E)): 406.777 and 372.997 and 396.442 and 391.125 and 560.24 and 475.841 and 620.741 and 568.711 and 690.623 and 560.219 and 348.734
[Ca]i response (change in fluorescence), individual replicates ([2]; concentration -3.52288 (log), sheet Figure 3(E)): 399.171 and 292.37 and 420 and 326.195 and 503.571 and 407.047 and 570.074 and 544.405 and 658.472 and 579.18 and 509.178 and 443.895 and 251.795
[Ca]i response (change in fluorescence), individual replicates ([2]; concentration -4 (log), sheet Figure 3(E)): 465.941 and 242.855 and 408.124 and 299.959 and 422.86 and 556.178 and 443.235 and 598.589 and 512.677 and 412.651 and 386.358 and 8.272
[Ca]i response (change in fluorescence), individual replicates ([2]; concentration -4.52288 (log), sheet Figure 4): 54.0853 and 24.6638 and 241.325
[Ca]i response (change in fluorescence), individual replicates ([2]; concentration -6 (log), sheet Figure 3(E)): 0.7258 and 2.113 and 6.067 and 2.682 and 1.675 and 5.148 and 1.916 and 4.62 and 6.922 and 6.788 and 9.2435
[Ca]i response (change in fluorescence), individual replicates ([2]; concentration -6.52288 (log), sheet Figure 3(E)): 2.403 and 2.775 and 5.3494 and 3.66 and 4.992 and 6.537 and 3.841 and 13.1494 and 4.894 and 10.2884 and 14.1967 and 10.211 and 1.152 and 9.578
TRPA1 response, Mean± SEM (N) ([2]; highest concentration of cinnamaldehyde (300 µM)): 461 ± 60 (14)

C[C@H](CCC(=O)O)C[C@H](C)C[C@H](C)C(=O)/C=C(\O)[C@H](C)C[C@H](C)C/C=C/[C@@H](C)[C@@H](O)[C@@H](C)[C@@H](O)C[C@@H]1CC[C@@](C)([C@H]2CC[C@@](C)([C@@H](C)O)O2)O1 [Ionomycin, ionomycin, reference compound]
Change in Ca5 fluorescence [3]: 673 ± 25%

CCCCCCCCCCCCCC(=O)O[C@@H]1[C@@H](C)[C@@]2(O)[C@@H](C=C(CO)C[C@]3(O)C(=O)C(C)=C[C@@H]23)[C@@H]2C(C)(C)[C@]12OC(C)=O [PMA, phorbol 12-myristate 13 acetate]
Effect of PMA on [Ca]i and on subsequent capsaicin (10 nM) response ([4]; 10 nM PMA): no effect by itself or on subsequent capsaicin responses
Effect of PMA on [Ca]i and on subsequent capsaicin (10 nM) response ([4]; 100 nM and 300 nM PMA): increased [Ca]i by themselves and potentiated the subsequent response to capsaicin
HBSS post PMA, individual experiments ([4]; HBSS after PMA 10 nM): 8.227 and -0.2853 and 4.968
HBSS post PMA, individual experiments ([4]; HBSS after PMA 100 nM): 96.5177 and 16.207 and 101.105
HBSS post PMA, individual experiments ([4]; HBSS after PMA 300 nM): 103.993 and 74.6715 and 86.0703
PMA response, individual experiments ([4]; PMA 10 nM): 8.128 and 3.047 and 2.7892
PMA response, individual experiments ([4]; PMA 100 nM): 57.0524 and 7.397 and 49.5032
PMA response, individual experiments ([4]; PMA 300 nM): 86.7592 and 51.2353 and 83.7821
Capsaicin post PMA, individual experiments ([4]; capsaicin 10 nM after PMA 10 nM): 64.4162 and 157.042 and 126.077
Capsaicin post PMA, individual experiments ([4]; capsaicin 10 nM after PMA 100 nM): 263.634 and 178.507 and 297.323
Capsaicin post PMA, individual experiments ([4]; capsaicin 10 nM after PMA 300 nM): 310.464 and 307.302 and 365.989

Reference: publication PMC11949107, “Polyunsaturated fatty acids and their endocannabinoid-related metabolites activity at human TRPV1 and TRPA1 ion channels expressed in HEK-293 cells” (PeerJ, 2025)
